Experimental data reported in patent US11319328B2 (priority 2017, dated 2022).

Key:
Assay in all cases: cells
Format in all cases: cell-based
[1] = tested on: cervical cancer Hela; conditions: cultured 48 h, MTT
Method: (§1) A cell strain: Hepatoma HepG2, cervical cancer Hela, lung cancer A549, breast cancer MCF7 cell line and human normal liver cell HL7702 were purchased from Wuhan Boster Biological Technology Co., Ltd.;
(§2) HepG2, Hela, A549, MCF 7 cells in logarithmic growth phase and human normal hepatocytes HL7702 were centrifuged at 1500 rpm for 5 min, and the supernatant was discarded; the cells were digested with a suitable amount of trypsin, and then suspended with a suitable amount of culture medium (HepG2, Hela and HL7702 cells were suspended with penicillin-streptomycin RPMI1640 culture medium containing 10% calf serum, A549 and MCF 7 cells with penicillin-streptomycin high glucose DMEM culture medium containing 10% calf serum, to adjust the cell concentration to 1.5×10^4 cells/well, the cells were seeded in 96-well plates, and the following experimental groups were set:
(§3) 0.10 mL of the cell suspension was added to each well, and incubated at 37° C., 5% CO2 and saturated humidity for 12 h, and the culture medium was discarded when the cell density was nearly 70%. […] 100 μl of 5 mg/ml MTT was added per well, standing for 4 h at 37° C. 100 μl of DMSO was added to each well, followed by shaking on a shaker for 10 min at 37° C., the absorbance (OD) was measured at 492 nm, and the MTT ratio was calculated as the OD value of drug group/OD value of negative control group.

[2] = tested on: breast cancer MCF7 cell line; conditions: cultured 48 h, MTT
Method: as §1, §2, §3

[3] = tested on: human normal liver cell HL7702; conditions: human normal hepatocytes HL7702, cultured 48 h, MTT
Method: as §1, §2, §3

[4] = tested on: lung cancer A549; conditions: cultured 48 h, MTT
Method: as §1, §2, §3

[5] = tested on: Hepatoma HepG2; conditions: cultured 48 h, MTT
Method: as §1, §2, §3

Molecule | IC50 [1] [µM] | IC50 [2] [nM] | IC50 [3] [µM] | IC50 [4] [nM] | IC50 [5] [µM]
4β-NH-(2-(5-amino-2-methylphenyl)-4-(3-pyridyl) pyrimidine)-4′-demethylepipodophyllotoxin [Compound 38] | 35.1 ± 5.9 | 14500 ± 3800 | > 100 | 15500 ± 2000 | 29.5 ± 3.2
4β-NH-(6-indazolamine)-4′-demethylepipodophyllotoxin [Compound 32] | 6.4 ± 1.8 | 21400 ± 5900 | 17.7 ± 2.2 | 25600 ± 3700 | 19.4 ± 1.5
4β-NH-(7-indazolamine)-4′-demethylepipodophyllotoxin [Compound 33] | 34 ± 1.1 | 16400 ± 900 | 29.8 ± 1.9 | 24500 ± 5000 | 22.5 ± 2.6
COc1cc(C2c3cc4c(cc3C(Nc3cccc5c3C(=O)c3ccccc3C5=O)C3COC(=O)C23)OCO4)cc(OC)c1OC (stereo not drawn) [Compound 1, 4β-NH-(1-aminoanthraquinone) podophyllotoxin] | 0.7 ± 0.1 | 700 ± 10 | > 100 | 200 ± 10 | 0.9 ± 0.05
COc1cc(C2c3cc4c(cc3C(Nc3ccc5c(c3)C(=O)c3ccccc3C5=O)C3COC(=O)C23)OCO4)cc(OC)c1OC (stereo not drawn) [Compound 2, 4β-NH-(2-aminoanthraquinone) podophyllotoxin] | 2.5 ± 0.3 | 2900 ± 100 | > 100 | 2900 ± 400 | 9.6 ± 0.8
COc1cc([C@@H]2c3cc4c(cc3[C@@H](Nc3ccc5c(c3N)C(=O)c3ccccc3C5=O)[C@@H]3COC(=O)[C@H]23)OCO4)cc(OC)c1OC [Compound 3, 4β-NH-(1,2-diaminoanthraquinone) podophyllotoxin] | 24.6 ± 3.2 | 17500 ± 2100 | > 100 | > 100000 | 52 ± 8.4
COc1cc(C2c3cc4c(cc3C(Nc3cccc5c3C(=O)c3cccc(N)c3C5=O)C3COC(=O)C23)OCO4)cc(OC)c1OC (stereo not drawn) [Compound 4, 4β-NH-(1,5-diaminoanthraquinone) podophyllotoxin] | 4.6 ± 0.2 | 3400 ± 600 | > 100 | 2200 ± 300 | 4.7 ± 0.4
COc1cc([C@@H]2c3cc4c(cc3[C@@H](Nc3ccc5c(c3)C(=O)c3ccc(N)cc3C5=O)[C@@H]3COC(=O)[C@H]23)OCO4)cc(OC)c1OC [Compound 5, 4β-NH-(2,6-diaminoanthraquinone) podophyllotoxin] | 6.5 ± 0.5 | > 100000 | > 100 | > 100000 | 9.1 ± 1.2
COc1cc([C@@H]2c3cc4c(cc3[C@@H](Nc3nc(N)nc5ccccc35)[C@@H]3COC(=O)[C@H]23)OCO4)cc(OC)c1OC [Compound 6, 4β-NH-(2,4-quinazolinediamine) podophyllotoxin] | 19.2 ± 1.9 | 24500 ± 4400 | 13.8 ± 1.9 | 14300 ± 2300 | > 100
COc1cc(C2c3cc4c(cc3C(Nc3ccc5ncccc5c3)C3COC(=O)C23)OCO4)cc(OC)c1OC (stereo not drawn) [Compound 7, 4β-NH-(6-aminoquinoline) podophyllotoxin] | 0.7 ± 0.03 | 600 ± 30 | > 100 | 300 ± 40 | 0.8 ± 0.01
COc1cc([C@@H]2c3cc4c(cc3[C@@H](Nc3cccc5ncccc35)[C@@H]3COC(=O)[C@H]23)OCO4)cc(OC)c1OC [Compound 8, 4β-NH-(5-aminoquinoline) podophyllotoxin] | > 100 | > 100000 | > 100 | > 100000 | > 100
COc1cc(C2c3cc4c(cc3C(Nc3cccc5cnccc35)C3COC(=O)C23)OCO4)cc(OC)c1OC (stereo not drawn) [Compound 9, 4β-NH-(5-aminoisoquinoline) podophyllotoxin] | 3.1 ± 0.2 | 1400 ± 300 | 16.3 ± 2.8 | 2300 ± 100 | 4.1 ± 1.1
COc1cc([C@@H]2c3cc4c(cc3[C@@H](Nc3cccc5cccnc35)[C@@H]3COC(=O)[C@H]23)OCO4)cc(OC)c1OC [Compound 10, 4β-NH-(8-aminoquinoline) podophyllotoxin] | 2.7 ± 0.3 | 1000 ± 100 | 37 ± 4.8 | 1200 ± 200 | 4.6 ± 0.4
COc1cc([C@@H]2c3cc4c(cc3[C@@H](Nc3cccc5ccc(C)nc35)[C@@H]3COC(=O)[C@H]23)OCO4)cc(OC)c1OC [Compound 11, 4β-NH-(8-aminoquinaldine) podophyllotoxin] | 1.5 ± 0.1 | 1000 ± 200 | > 100 | 3000 ± 400 | 1.6 ± 0.1
COc1cc(C2c3cc4c(cc3C(Nc3ccc5[nH]ncc5c3)C3COC(=O)C23)OCO4)cc(OC)c1OC (stereo not drawn) [Compound 12, 4β-NH-(5-indazolamine) podophyllotoxin] | 0.5 ± 0.01 | 400 ± 30 | 50 | 200 ± 20 | 0.3 ± 0.02
COc1cc(C2c3cc4c(cc3C(Nc3ccc5cn[nH]c5c3)C3COC(=O)C23)OCO4)cc(OC)c1OC (stereo not drawn) [Compound 13, 4β-NH-(6-indazolamine) podophyllotoxin] | 2.1 ± 0.3 | 1300 ± 200 | 33.6 ± 1.5 | 2400 ± 200 | 1.8 ± 0.2
COc1cc([C@@H]2c3cc4c(cc3[C@@H](Nc3cccc5cn[nH]c35)[C@@H]3COC(=O)[C@H]23)OCO4)cc(OC)c1OC [Compound 14, 4β-NH-(7-indazolamine) podophyllotoxin] | 0.9 ± 0.01 | 400 ± 10 | 43.3 ± 2.8 | 500 ± 10 | 0.9 ± 0.1
COc1cc(C2c3cc4c(cc3C(Nc3ccc5[nH]ccc5c3)C3COC(=O)C23)OCO4)cc(OC)c1OC (stereo not drawn) [Compound 15, 4β-NH-(5-aminoindole) podophyllotoxin] | 3.8 ± 0.2 | 4800 ± 900 | 30.5 ± 2.7 | 2200 ± 900 | 2.5 ± 0.6
COc1cc(C2c3cc4c(cc3C(Nc3ccc5cc[nH]c5c3)C3COC(=O)C23)OCO4)cc(OC)c1OC (stereo not drawn) [Compound 16, 4β-NH-(6-aminoindole) podophyllotoxin] | 0.4 ± 0.01 | 300 ± 10 | 140 | 200 ± 20 | 0.6 ± 0.01
COc1cc([C@@H]2c3cc4c(cc3[C@@H](Nc3cccc5cc[nH]c35)[C@@H]3COC(=O)[C@H]23)OCO4)cc(OC)c1OC [Compound 17, 4β-NH-(7-aminoindole) podophyllotoxin] | 0.8 ± 0.1 | 800 ± 100 | 38.4 ± 2.6 | 1000 ± 100 | 1.9 ± 0.2
COc1cc(C2c3cc4c(cc3C(Nc3ccccc3-c3nc5ccccc5[nH]3)C3COC(=O)C23)OCO4)cc(OC)c1OC (stereo not drawn) [Compound 18, 4β-NH-(2-(2-aminophenyl)benzimidazole)-podophyllotoxin] | 4.8 ± 0.2 | 1700 ± 200 | > 100 | 2800 ± 100 | 3.6 ± 0.3
COc1cc([C@@H]2c3cc4c(cc3[C@@H](Nc3ccc(C)c(-c5nccc(-c6cccnc6)n5)c3)[C@@H]3COC(=O)[C@H]23)OCO4)cc(OC)c1OC [Compound 19, 4β-NH-(2-(5-amino-2-methylphenyl)-4-(3-pyridyl)pyrimidine)-podophyllotoxin] | 4.8 ± 0.4 | 9500 ± 800 | > 100 | 7700 ± 600 | 6.6 ± 0.1
COc1cc(C2c3cc4c(cc3C(Nc3cccc5c3C(=O)c3ccccc3C5=O)C3COC(=O)C23)OCO4)cc(OC)c1O (stereo not drawn) [Compound 20, 4β-NH-(1-aminoanthraquinone)-4′-demethylepipodophyllotoxin] | 8.5 ± 2.1 | 2300 ± 100 | 53.7 ± 5.3 | 1800 ± 200 | 8.8 ± 2.1
